Results as given in PMC4295395, “An open label pilot study to evaluate the efficacy of Spanish black radish on the induction of phase I and phase II enzymes in healthy male subjects” (BMC Complementary and Alternative Medicine, 2014).

How the values were obtained:
[1] = Urine acetaminophen and metabolite profile (HPLC) after 1000 mg acetaminophen, at week 0 and after 4 weeks of SBR supplementation; type: in vivo, human; conditions: for Urine concentration at time points, week 4 vs week 0 (in words): 0, 2, 4, 6, 8 h after 1000 mg acetaminophen, after 4 weeks SBR; for Increase of urine levels (AUC0-8h) from week 0 to week 4: after 4 weeks SBR supplementation, 1000 mg acetaminophen
Description: (§1) Participants returned to the clinic for their 8-hour in-clinic baseline visit (week 0) at which time their heart rate and blood pressure were measured and BMI calculated. […] Meals were provided after the pre-dose and 4-hour blood collection. After the 8-hour test period, participants received 3-day food records and paper diaries for recording their study product use, changes in concomitant therapies, and any side effects/changes in health conditions.
(§2) Participants returned to the clinic in a fasting state at 28 days post-baseline (week 4) for an 8-hour in-clinic test at which time heart rate and blood pressure were measured and BMI was calculated. […] Meals were provided after the pre-dose and the 4-hour blood collection. Subjects were required to consume the same meal items on each of the 8-hour test days.
At baseline and week 4, urine was collected in separate containers at 2 hour intervals between 0 and 8 hours, aliquoted into 1.0 mL volumes and stored below -40°C until HPLC analysis. Urine samples were prepared for HPLC analysis by adding 750 μl of Milli Q water to 250 μl of urine and vortexed. The preparation was centrifuged at 1800 g for 10 min and 20 μl of the preparation was injected into the HPLC system.
Paracetamol (5000 μg, A5000, Sigma-Aldrich), paracetamol glucuronide (5000 μg, A4438, Sigma-Aldrich), paracetamol sulfate (5000 μg, A161230, Toronto Research Chemical) or paracetamol mercapturate (5000 μg, A172100, Toronto Research Chemical) were added to 1 ml of a Milli Q water/methanol mixture (50:50 v/v). Serial dilutions of each stock solution were prepared in urine devoid of paracetamol (blank) to give the following concentrations: 2500 μg/ml, 1250 μg/ml, 625 μg/ml, 312.5 μg/ml, 156.25 μg/ml, 78.15 μg/ml, 39.0625 μg/ml, 19.531 μg/ml, 9.766 μg/ml and 4.883 μg/ml by serial dilution.
(§3) The chromatography system comprised of a Varian Solvent Delivery module 210, injector Varian Auto Sampler model 410, Varian 335 Photo Diode Array Detector for detection and MS workstation software 6.4.1 for data acquisition. Reverse phase isocratic HPLC analysis was performed with a C18 column with particle size 4 μm (4.6x150 mm). The flow rate was 0.65-0.75 ml/minute and the detection was at 240–245 nm. A 0.1 M sodium phosphate buffer containing acetonitrile at a ratio of 10:90 (v/v) was used as the mobile phase for plasma analysis. A 1 M sodium phosphate buffer containing acetonitrile at a ratio of 5:95 (v/v) was used as mobile phase for urine analysis.
(§4) Statistical comparisons of maximum concentrations (Cmax) and area under the concentration time curve (AUC) were performed on log transformed data. A paired t-test was used to compare pre- and post-treatment measurements of safety end points: biometrics, vital signs, hematology and blood clinical chemistry parameters. SAS Version 9.1 was used to perform the statistical analysis, with probability values ≤0.05 considered statistically significant.

[2] = Plasma acetaminophen and metabolite profile (HPLC) after 1000 mg acetaminophen, at week 0 and after 4 weeks of SBR supplementation; conditions: for Decrease of plasma AUC0-8h from week 0 to week 4: after 4 weeks SBR supplementation; for Decrease of plasma AUC0-8h from week 0 to week 4 / AUC(0-t) / Cmax / Tmax / Plasma AUC(0–8 hour) / Plasma Tmax / Plasma Cmax: 1000 mg acetaminophen; for Plasma Tmax, difference from week 0 to week 4: after 4 weeks SBR vs week 0, mean ± SD; for AUC(0-t) / Cmax / Tmax: male, human, plasma, oral, 1000 mg; for AUC(0-t): Plasma AUC(0–8 hour); for Cmax: Plasma Cmax; for Tmax: Plasma Tmax
Description: as §1, §2
The plasma was separated and aliquoted into 1.0 mL volume samples. These samples were stored below -40°C until high-performance […] chromatography (HPLC) analysis was performed. Plasma samples were prepared for HPLC analysis by adding 25 μl of 30% w/v aqueous perchloric acid (311413, Sigma-Aldrich, Toronto, Canada) to 250 μl of plasma in a 1.5 ml Eppendorf tube and then vortexed for 30 seconds and centrifuged at 1800 g for 10 min and 20 μl of clear supernatant was injected into the HPLC system.
Paracetamol (50 μg, A5000, Sigma-Aldrich, Toronto, Canada), paracetamol glucuronide (50 μg, A4438, Sigma-Aldrich, Toronto, Canada), or paracetamol sulfate (50 μg, A161230, Toronto Research Chemical Inc., Toronto, Canada) was added to 1 ml of Milli Q water/methanol mixture (50:50 v/v). NAPQI (50 μg, A170000, Toronto Research Chemical) was added to 1 ml acetonitrile. […] standard solutions were prepared in plasma devoid of paracetamol (blank) at the following concentrations: 25 μg/ml, 12.5 μg/ml, 6.25 μg/ml, 3.125 μg/ml, 1.56 μg/ml, 0.78 μg/ml and 0.39 μg/ml by serial dilution.
as §3, §4

[3] = after 4 weeks SBR vs week 0, mean ± SD
[4] = week 0 (before SBR), N=19, mean ± SD
[5] = week 4 (after 4 weeks SBR), N=19, mean ± SD
[6] = week 0 (before SBR), healthy males N=19, mean ± SD
[7] = week 4 (after 4 weeks SBR, 6 tablets daily), N=19, mean ± SD

Structure (SMILES) | Urine concentration at time points, week 4 vs week 0 (in words) [1] | Increase of urine levels (AUC0-8h) from week 0 to week 4 [1] [%] | Urine AUC(0–8 hour), difference from week 0 to week 4 [1, 3] [mg·h] | Urine Cmax, difference from week 0 to week 4 [1, 3] [mg] | Urine Tmax, difference from week 0 to week 4 [1, 3] [min] | Plasma concentration at time points, week 4 vs week 0 (in words) ([2]; 0, 2, 4, 6, 8 h after 1000 mg acetaminophen, after 4 weeks SBR) | Decrease of plasma AUC0-8h from week 0 to week 4 [2] [%] | Plasma Tmax, difference from week 0 to week 4 [2] [min] | AUC(0-t) [2, 4] [ng·h/mL] | AUC(0-t) [2, 5] [ng·h/mL] | Cmax [2, 6] [ng/mL] | Cmax [2, 7] [ng/mL] | Tmax [2, 4] [h] | Tmax [2, 5] [h] | Plasma AUC(0–8 hour) [2, 4] [µmol·h/L] | Plasma Tmax [2, 4] [h] | Plasma Cmax [2, 6] [µmol/L] | Plasma AUC(0–8 hour) [2, 5] [µmol·h/L] | Plasma Tmax [2, 5] [h] | Plasma Cmax [2, 7] [µmol/L]
CC(=O)Nc1ccc(O[C@@H]2O[C@H](C(=O)O)[C@@H](O)[C@H](O)[C@H]2O)cc1 [Acetaminophen glucuronide] | no significant differences | 1 | -38.69 ± 342.45 | 19.57 ± 124.28 | 19.2 ± 100 | decreased significantly at 2 h post-acetaminophen dose | 9 | 25.2 ± 75.6 | 58000 ± 14500 | 52800 ± 14100 | 12600 ± 4120 | 10800 ± 3090 | 2.13 ± 0.46 | 2.55 ± 1.13 |  |  |  |  |  | 
CC(=O)Nc1ccc(O)c(SCC(N)C(=O)O)c1 (centres unmarked) [Acetaminophen mercapturate] | higher at all time points | 37 | 22.68 ± 44.43 | 4.82 ± 9.72 |  |  |  |  |  |  |  |  |  |  |  |  |  |  |  | 
CC(=O)Nc1ccc(O)c(SC[C@H](NC(=O)CC[C@H](N)C(=O)O)C(=O)NCC(=O)O)c1 [NAPQI-GSH] |  |  |  |  |  |  | 9 | 0 ± 1.2 |  |  |  |  |  |  | 0.72 ± 0.31 | 2.03 ± 0.01 | 0.18 ± 0.09 | 0.66 ± 0.22 | 2.02 ± 0.01 | 0.18 ± 0.04
